Measured values published in US11512053B2, “Arginine methyltransferase inhibitors and uses thereof” (priority 2013, dated 2022).
Where a name gives a salt, the structure may show the parent alone. Read-outs that look alike come from different tables or passages of the source.

Legend:
[1] = molecular target: full-length human PRMT6 (Flag- and His-tagged) (Homo sapiens, UniProt Q96LA8); assay: PRMT6 Biochemical Assay (3H-SAM Flashplate, peptide substrate); details: read-out: Biochemical IC50 PRMT6
Sequence of full-length human PRMT6 (Flag- and His-tagged) (Q96LA8 with tags, fused parts or gaps): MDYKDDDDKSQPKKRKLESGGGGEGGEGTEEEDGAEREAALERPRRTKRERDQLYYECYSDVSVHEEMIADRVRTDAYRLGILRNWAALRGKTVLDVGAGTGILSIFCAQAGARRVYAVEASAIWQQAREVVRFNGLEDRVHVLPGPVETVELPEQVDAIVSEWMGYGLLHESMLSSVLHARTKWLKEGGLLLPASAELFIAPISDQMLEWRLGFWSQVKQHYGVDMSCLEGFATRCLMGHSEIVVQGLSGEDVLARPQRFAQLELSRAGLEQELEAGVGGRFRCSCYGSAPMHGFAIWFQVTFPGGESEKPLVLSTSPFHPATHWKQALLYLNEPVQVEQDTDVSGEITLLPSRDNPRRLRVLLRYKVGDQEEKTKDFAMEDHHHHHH
Method in brief: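 Radiometric methyltransferase readout: tritium transfer onto a biotin-tagged histone H4 36-50 peptide bearing monomethyl K44 (75 nM), captured on streptavidin Flashplates after stopping with 400 uM unlabeled SAM. Enzyme is baculovirus-expressed Flag-PRMT6-His at 1 nM, given 30 min with compound at room temperature before adding 200 nM 3H-SAM and 250 nM cold SAM (pH 7.6 Bicine, 2% DMSO). Percent inhibition relative to max/min (1 mM SAH) controls, curve-fit to IC50.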

[2] = test system: mono-methyl arginine in RKO cells; assay: RKO Methylation Assay, In Cell Western (ICW) for detection of mono-methyl arginine and DNA content; format: cell-based; details: for EC30: Homo sapiens, RKO, 72 h
Method in brief: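 RKO cells were treated with compound for 72 hours at 37 °C, methanol-fixed and stained overnight at 4 °C with anti-mono-methyl arginine (1:200), with DRAQ5 for DNA. Odyssey 800/700 nm intensity ratio was normalized to DMSO and 20 μM reference-compound controls. EC30 from triplicate nine-point curves.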

[3] = single experiment or average of multiple experiments
[4] = RKO cells, 72 hours incubation, mono-methyl arginine signal normalised to DNA content, single experiment or average of multiple experiments, read-out: In Cell Western EC30
[5] = RKO cells, 72 hours compound incubation, mono-methyl arginine signal normalised to DNA content (DRAQ5), percent activation vs 20 μM reference compound
[6] = RKO cells, 72 hours compound incubation, mono-methyl arginine signal normalised to DNA content (DRAQ5), percent activation vs 20 μM reference compound, read-out: In Cell Western EC30

SMILES | IC50 [1] | IC50 [1, 3] | EC30 [2, 4] | also measured
CNCCN(C)Cc1c[nH]nc1C1CCC(C)(C)[C@H](OCCCOC)C1 (stereo partly shown) [Compound 272] | < 100 nM | 73.9 nM |  | 
COc1cccc(/C=C/c2n[nH]cc2CN(C)CCN)c1 [Compound 17] |  | 50 nM |  | 
CNCCN(C)Cc1c[nH]nc1C1CCC2(CCC(C)(C)CC2)OC1 (stereo not shown) [Compound 65] | < 100 nM | 41.9 nM | 77.5 nM | EC30 [2, 6]: < 3000 nM
CNCCN(C)Cc1c[nH]nc1[C@@H]1CCC(C)(C)[C@@H](C(=O)NCCCOC)C1 [Compound 271, (1S,5R)—N-(3-methoxypropyl)-2,2-dimethyl-5-[4-({methyl[2-(methylamino)ethyl]amino}methyl)-1H-pyrazol-3-yl]cyclohexane-1-carboxamide] | 101 to 1000 nM | 121 nM |  | 
CCCc1n[nH]cc1CN(C)CCN [Compound 29] |  | 290 nM | > 20000 nM | In Cell Western EC30 [2, 5]: C (“C” indicates an EC30 > 12.01 μM)
CNCCN(C)Cc1c[nH]nc1C1CCC(OCCOC)CC1 (stereo not shown) [Compound 58] | < 100 nM | 108 nM | 978 nM | 
CNCCN(C)Cc1c[nH]nc1C1CCN(C(=O)CC(C)C)CC1 [Compound 40, 3-methyl-1-(4-(4-((methyl(2-(methylamino)ethyl)amino)methyl)-1H-pyrazol-3-yl)piperidin-1-yl)butan-1-one] |  | 20 nM | 870 nM | EC30 [2, 6]: < 3000 nM
CN(CCN)Cc1c[nH]nc1/C=C/c1cc(C(F)(F)F)cc(C(F)(F)F)c1 [Compound 14] |  | 930 nM |  | 
CCOCC1CC(c2n[nH]cc2CN(C)CCNC)CC(COCC)C1(C)C (stereo not shown) [Compound 87] | 3010 to 10000 nM | 3730 nM | 2530 nM | EC30 [2, 6]: < 3000 nM
CNCCN(C)Cc1c[nH]nc1C1CCC(C)(C)[C@H](OCC2CCOCC2)C1 (stereo partly drawn) [Compound 273, ({3-[(3R)-4,4-dimethyl-3-(oxan-4-ylmethoxy)cyclohexyl]-1H-pyrazol-4-yl}methyl)(methyl)[2-(methylamino)ethyl]amine] | < 100 nM | 40.5 nM |  | 
CNCCN(C)Cc1c[nH]nc1C1CCN(C)CC1 [Compound 41] |  |  | > 20000 nM | In Cell Western EC30 [2, 5]: C (“C” indicates an EC30 > 12.01 μM)
COC/C=C/c1n[nH]cc1CN(C)CCN [Compound 19] |  | 170 nM |  | 
CNCCN(C)Cc1c[nH]nc1C1CCC(C)(C)C(C(=O)NCc2ccccc2)C1 (stereo not shown) [Compound 92] | < 100 nM | 49 nM | 2170 nM | EC30 [2, 6]: < 3000 nM
CNCCN(C)Cc1c[nH]nc1C1CCC(C)(C)C(C(=O)NCCC(C)C)C1 (stereo not shown) [Compound 91] | < 100 nM | 63.1 nM | 2060 nM | EC30 [2, 6]: < 3000 nM
CNCCN(C)Cc1ccnn1C1CCC2(CCCC2)CC1 [Compound 275, Methyl[2-(methylamino)ethyl][(1-[spiro[4.5]decan-8-yl]-1H-pyrazol-5-yl)methyl]amine trifluoroacetate] | < 100 nM | 18.6 nM |  | EC30 ([2]; read-out: In Cell Western EC30, RKO cells, 72 hours compound incubation, mono-methyl arginine signal normalised to DNA content (DRAQ5), percent activation vs 20 μM reference compound): < 3000 nM; EC30 ([2]; read-out: In Cell Western EC30, RKO cells, 72 hours incubation, mono-methyl arginine signal normalised to DNA content, single experiment or average of multiple experiments): 84 nM
CNCCN(C)Cc1c[nH]nc1C#Cc1cccc(OC)c1 [Compound 1] |  | 70 nM |  | 
CNCCN(C)Cc1c[nH]nc1[C@@H]1CCC(C)(C)[C@@H](C(=O)NCCOC)C1 [Compound 269] | 101 to 1000 nM | 107 nM |  | 
CN(CCN)Cc1c[nH]nc1C1=CCCC1 [Compound 25] |  | 290 nM | 11800 nM | In Cell Western EC30 [2, 5]: B (“B” indicates an EC30 of 3.01-12.00 μM)
CNCCN(C)Cc1c[nH]nc1C1CCC(COC)(COC)CC1 [Compound 57] | < 100 nM | 69.4 nM | 25 nM | EC30 [2, 6]: < 3000 nM
CNCCN(C)Cc1c[nH]nc1C1CCC(C)(C)C(C(=O)NCCCOC)C1 (stereo not shown) [Compound 93] | < 100 nM | 71.9 nM |  | 
CNCCN(C)Cc1c[nH]nc1[C@H]1CCC(C)(C)[C@@H](C(=O)NCCCOC)C1 [Compound 270] | 101 to 1000 nM | 149 nM |  | 
CN(CCN)Cc1c[nH]nc1/C=C/c1cc(F)cc(F)c1 [Compound 15] |  | 40 nM |  | 
CNCCN(C)Cc1c[nH]nc1[C@H]1CCC(C)(C)[C@@H](C(=O)NCCOC)C1 [Compound 268] | 101 to 1000 nM | 141 nM |  | 
CN(CCN)Cc1c[nH]nc1C1CC1 [Compound 12] |  | 1080 nM |  | 
CN(CCN)Cc1c[nH]nc1/C=C/c1cccc(C(F)(F)F)c1 [Compound 16] |  | 150 nM |  | 
COc1cc(/C=C/c2n[nH]cc2CN(C)CCN)cc(OC)c1 [Compound 11] |  | 50 nM |  | 
CNCCN(C)Cc1c[nH]nc1C#Cc1ccc(F)cc1 [Compound 4] |  | 20 nM |  | 

Further compounds by falling IC50 [1, 3], results first:

IC50 [1] | IC50 [1, 3] | SMILES | EC30 [2, 4] | also measured
 | 40 nM | CNCCN(C)Cc1c[nH]nc1C#Cc1ccc(C(C)(C)C)cc1 [Compound 2] |  | 
 | 40 nM | Cc1ccc(/C=C/c2n[nH]cc2CN(C)CCN)cc1 [Compound 8] |  | 
< 100 nM | 38 nM | CNCCN(C)Cc1c[nH]nc1C1CCC(COC)CC1 (stereo not shown) [Compound 53] | 17 nM | EC30 [2, 6]: < 3000 nM
 | 30 nM | CN(CCN)Cc1c[nH]nc1C1CCCC1 [Compound 31] | > 20000 nM | In Cell Western EC30 [2, 5]: C (“C” indicates an EC30 > 12.01 μM)
 | 30 nM | CNCCN(C)Cc1c[nH]nc1/C=C/c1ccc(C(F)(F)F)cc1 [Compound 6] |  | 
 | 20 nM | CNCCN(C)Cc1c[nH]nc1C1CCN(C(=O)Cc2ccccc2)CC1 [Compound 32] | 2350 nM | In Cell Western EC30 [2, 5]: A (“A” indicates an EC30 ≤ 3.00 μM)
 | 20 nM | CN(CCN)Cc1c[nH]nc1C1CCCCC1 [Compound 22] | 1240 nM | In Cell Western EC30 [2, 5]: A (“A” indicates an EC30 ≤ 3.00 μM)
 | 20 nM | CN(CCN)Cc1c[nH]nc1/C=C/c1cccc(F)c1 [Compound 20] |  | 
 | 20 nM | CN(CCN)Cc1n[nH]cc1C1CCC(N2CCOCC2)CC1 (stereo not shown) [Compound 44, N^1-methyl-N^1-((4-(4-morpholinocyclohexyl)-1H-pyrazol-3-yl)methyl)ethane-1,2-diamine] | 4570 nM | In Cell Western EC30 [2, 5]: B (“B” indicates an EC30 of 3.01-12.00 μM)
 | 20 nM | CNCCN(C)Cc1c[nH]nc1/C=C/c1ccc(OC)cc1 [Compound 7] |  | 
< 100 nM | 19.9 nM | CNCCN(C)Cc1cnn(C)c1C1CCC2(CCCC2)CC1 [Compound 49] | 50 nM | 
< 100 nM | 12.1 nM | CNCCN(C)Cc1c[nH]nc1C1CCC2(CC1)CC(C)OC(C)C2 (stereo not shown) [Compound 63] | 1090 nM | EC30 [2, 6]: < 3000 nM
 | 10 nM | CC1CCC(c2c[nH]nc2CN(C)CCN)CC1 (stereo not shown) [Compound 35] | 730 nM | In Cell Western EC30 [2, 5]: A (“A” indicates an EC30 ≤ 3.00 μM)
 | 10 nM | CC1CCC(c2n[nH]cc2CN(C)CCN)CC1 (stereo not shown) [Compound 37, N^1-methyl-N^1-((3-(4-methylcyclohexyl)-1H-pyrazol-4-yl)methyl)ethane-1,2-diamine] | 260 nM | In Cell Western EC30 [2, 5]: A (“A” indicates an EC30 ≤ 3.00 μM)
 | 10 nM | CN(CCN)Cc1c[nH]nc1/C=C/c1ccc(F)cc1F [Compound 13] |  | 
 | 10 nM | CN(CCN)Cc1c[nH]nc1C1CCC(C)(C)CC1 [Compound 38, N^1-((3-(4,4-dimethylcyclohexyl)-1H-pyrazol-4-yl)methyl)-N^1-methylethane-1,2-diamine] | 130 nM | In Cell Western EC30 [2, 5]: A (“A” indicates an EC30 ≤ 3.00 μM)
 | 10 nM | CN(CCN)Cc1c[nH]nc1/C=C/c1ccc(C(F)(F)F)cc1 [Compound 18] |  | 
